The results in this text go back to PubChem BioAssay (NCI).

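Assay format: 96-well plates, 48-hour exposure. GI50 = concentration required for 50% inhibition of growth. The concentration for full growth arrest is given as TGI.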

Some test systems named below: COLO 205 colon; CCRF-CEM leukemia; HCT-116 colon; SW-620 colon; HS 578T breast; CAKI-1 renal; SK-OV-3 ovarian; RPMI-8226 leukemia; SNB-75 CNS; MALME-3M melanoma.
What all share (test): NCI-60 cell line screen, 48 h

Consider `CN(C)C(=O)c1cc2cnc(Nc3ccc(-c4csc5c(=O)cc(N6CCOCC6)oc45)cc3)nc2n1C1CCCC1`, for which the GI50 with COLO 205 colon was 0.166 µM; in the test on CCRF-CEM leukemia, 0.205 µM; in the test on HCT-116 colon, 0.169 µM; in the test with SW-620 colon it was 0.153 µM; in the test on HS 578T breast it was 0.134 µM; in the test on CAKI-1 renal, 0.152 µM. In addition, the GI50 with SK-OV-3 ovarian was 0.478 µM; in the test with RPMI-8226 leukemia, 0.142 µM; in the test on SNB-75 CNS it was 0.085 µM. In addition, the TGI with COLO 205 colon amounted to 1.32 µM; in the test with CCRF-CEM leukemia it was 18.3 µM; with HCT-116 colon, 0.815 µM; in the test on SW-620 colon, 1 µM; in the test with HS 578T breast it was 0.648 µM; with CAKI-1 renal it was 1.15 µM. Further, the TGI in the test with SK-OV-3 ovarian was 2.88 µM; in the test on RPMI-8226 leukemia, 0.533 µM; in the test on SNB-75 CNS, 0.373 µM.
For the compound `C#Cc1c(C(N)=O)ncn1C1OC(COP(=O)(OCc2ccc([N+](=O)[O-])o2)N(C)CCCCCl)C(O)C1O` (centres undefined), the GI50 in the test with COLO 205 colon is 5.5 µM; in the test on CCRF-CEM leukemia, 21.9 µM; in the test with HCT-116 colon, 38.2 µM; with SW-620 colon, 41.4 µM; in the test on HS 578T breast it was greater than 100 µM; with CAKI-1 renal, 47.9 µM. The GI50 was 77 µM in the test on SK-OV-3 ovarian, 0.0113 µM in the test on RPMI-8226 leukemia and 28.1 µM with SNB-75 CNS. The TGI with COLO 205 colon was 88.2 µM; with CCRF-CEM leukemia, greater than 100 µM; in the test with HCT-116 colon, greater than 100 µM; with SW-620 colon it was greater than 100 µM; with HS 578T breast, greater than 100 µM; in the test on CAKI-1 renal, greater than 100 µM. The TGI in the test with SK-OV-3 ovarian, in the test on RPMI-8226 leukemia and in the test on SNB-75 CNS was greater than 100 µM each time.
As for `C=C(c1ccc(C(=O)N(C)c2ccccc2N)cc1)C(C)N1C(=O)[C@H]2CCCN2C(=O)c2ccccc21` (some centres undefined), the GI50 with COLO 205 colon was 24 µM; in the test with CCRF-CEM leukemia, 27.4 µM; with HCT-116 colon, 19.8 µM; in the test with SW-620 colon, 38.1 µM; with HS 578T breast, 53.1 µM; in the test on CAKI-1 renal it was 32.8 µM. The figures for the GI50 in the test with SK-OV-3 ovarian, with RPMI-8226 leukemia and in the test with SNB-75 CNS were 6.72 µM, 7.52 µM and 17.1 µM, respectively. The TGI with COLO 205 colon, in the test with CCRF-CEM leukemia, with HCT-116 colon, in the test on SW-620 colon, in the test on HS 578T breast and with CAKI-1 renal was greater than 100 µM throughout. In addition, the TGI with SK-OV-3 ovarian was determined as 84.2 µM; in the test with RPMI-8226 leukemia, 37.7 µM; in the test with SNB-75 CNS, 77.5 µM.
As to `COc1ccc(C(=O)c2cc3c(OC)c(OC)c(OC)cc3[nH]2)cc1`, the GI50 in the test on COLO 205 colon was 3.45 µM; in the test on CCRF-CEM leukemia, 5.27 µM; in the test on HCT-116 colon it was 3.22 µM; with SW-620 colon, 5.87 µM; in the test on HS 578T breast, 4.25 µM; with MALME-3M melanoma, 5.8 µM. In addition, the GI50 in the test with SK-OV-3 ovarian was greater than 100 µM; in the test with RPMI-8226 leukemia, 2.81 µM; with SNB-75 CNS, 6.84 µM. Further, the TGI in the test with COLO 205 colon, with CCRF-CEM leukemia, in the test on HCT-116 colon, in the test on SW-620 colon, with HS 578T breast and in the test on MALME-3M melanoma was greater than 100 µM each time. Further, the figures for the TGI in the test on SK-OV-3 ovarian, with RPMI-8226 leukemia and in the test with SNB-75 CNS were greater than 100 µM, 8.13 µM and 28.5 µM, respectively.
`COc1ccc(-n2c3c(c4c(CN5CCOCC5)c(O)ccc42)CCc2ccccc2C3=O)cc1`: the GI50 is greater than 100 µM in the test with COLO 205 colon; greater than 100 µM in the test on HCT-116 colon; 82.2 µM in the test on SW-620 colon; greater than 100 µM in the test on HS 578T breast; greater than 100 µM in the test with MALME-3M melanoma; 37.8 µM in the test on CAKI-1 renal. The GI50 was greater than 100 µM in the test on SK-OV-3 ovarian and 24.4 µM in the test on RPMI-8226 leukemia. In addition, the TGI in the test with COLO 205 colon, with HCT-116 colon, in the test with SW-620 colon, in the test with HS 578T breast, in the test on MALME-3M melanoma and in the test with CAKI-1 renal was greater than 100 µM in each case. For the same compound, the TGI in the test on SK-OV-3 ovarian and in the test with RPMI-8226 leukemia was greater than 100 µM each time.
`Cc1cc(=O)oc2cc(OCc3c(F)cccc3Cl)ccc12`: the TGI in the test on HCT-116 colon was greater than 100 µM; with HS 578T breast, 99.1 µM; in the test with MALME-3M melanoma it was greater than 100 µM; in the test with CAKI-1 renal, greater than 100 µM; in the test on SNB-75 CNS, 34.1 µM.
Turning to `Cc1ccc2c(c1)NC(=O)CC(c1ccccc1)=N2`, the TGI in the test on HCT-116 colon, in the test with SW-620 colon, in the test on HS 578T breast, in the test on MALME-3M melanoma, in the test with CAKI-1 renal and in the test on SK-OV-3 ovarian was greater than 100 µM in each case. The TGI in the test with RPMI-8226 leukemia was 76.7 µM; in the test on SNB-75 CNS, greater than 100 µM.
In the case of `O=Nc1ccc2ccccc2c1O`, the GI50 with COLO 205 colon is 4.79 µM; with HCT-116 colon it was 2.6 µM; in the test with SW-620 colon, 2.88 µM; with HS 578T breast, 1.56 µM; with MALME-3M melanoma, 3.39 µM; in the test on CAKI-1 renal, 3.14 µM. Moreover, the GI50 in the test with SK-OV-3 ovarian is 19.9 µM; in the test on RPMI-8226 leukemia, 5.69 µM; with SNB-75 CNS, 2.61 µM. For the same compound, the TGI amounted to 16.6 µM with COLO 205 colon; 7.36 µM with HCT-116 colon; 10.5 µM with SW-620 colon; 5.07 µM with HS 578T breast; 8.51 µM in the test with MALME-3M melanoma; 19.3 µM in the test with CAKI-1 renal. In addition, the TGI with SK-OV-3 ovarian worked out at 45.5 µM; with RPMI-8226 leukemia, 31.1 µM; in the test on SNB-75 CNS it was 15.7 µM.
